Experimental data reported in the NIST ThermoML archive (doi:10.1016/j.jct.2014.05.019).

Assay: refractive index (Na D-line) (dimensionless); xn = mol fraction of the nth substance listed
Conditions: 100 kPa, Liquid, Standard Abbe refractometry

NC(CO)C(=O)[O-].[Na+] (stereo not drawn) [sodium DL-serine] + O
refractive index
Conditions	303.15 K	308.15 K	313.15 K	318.15 K	323.15 K	328.15 K	333.15 K	338.15 K	343.15 K
x1 = 0.009	1.34216	1.34144	1.34066	1.33982	1.33894	1.33802	1.33706	1.33608	1.33505
x1 = 0.018	1.35202	1.35122	1.35038	1.3495	1.34861	1.34767	1.34667	1.34565	1.34458
x1 = 0.028	1.36168	1.36085	1.36	1.35908	1.35806	1.35706	1.35612	1.35511	1.35407
x1 = 0.037	1.37103	1.37015	1.36925	1.3683	1.36729	1.36632	1.36532	1.36426	1.36322
x1 = 0.048	1.38012	1.37921	1.37827	1.37725	1.37623	1.37526	1.37424	1.37311	1.37204
x1 = 0.059	1.38919	1.38826	1.38724	1.3862	1.38512	1.38406	1.38298	1.38194	1.38083
